Literature values, collected in patent publication US20100173012A1 (priority 2008, published 2010).

Tested on: Fusarium graminearum
Conditions: previous work of the inventors

Row | Compound | use to reduce ascospore discharge in F. graminearum
1 | O=C(O)CN(CC(=O)O)c1ccccc1OCCOc1ccccc1N(CC(=O)O)CC(=O)O [BAPTA] | successfully used
2 | CCN(CC)CCCCCCCCOC(=O)c1cc(OC)c(OC)c(OC)c1 [TMB8] | successfully used
3 | Cc1ccc(S(=O)(=O)NC(=O)NN2CCCCCC2)cc1 [Tolazamide] | successfully used
4 | COc1ccc(Cl)cc1C(=O)NCCc1ccc(S(=O)(=O)NC(=O)NC2CCCCC2)cc1 [glyburide] | successfully used
5 | OCC(O)CO [glycerol] | successfully used
6 | OC[C@@H](O)[C@@H](O)[C@H](O)[C@H](O)CO [mannitol] | successfully used
7 | COc1ccc(CCN(C)CCCC(C#N)(c2ccc(OC)c(OC)c2)C(C)C)cc1OC (stereo not shown) [verapamil] | successfully used
